Structures can show the parent of a compound that is named as a salt.
Target: T1, human recombinant Dipeptidyl peptidase IV enzyme (Homo sapiens, UniProt P27487)
T1 construct: purchased R & D Systems
Assay: In-vitro DPP-IV assay (cleavage of Gly-Pro-AMC)
Assay type: biochemical
Details: for IC50: n = 3, substrate Gly-Pro-AMC, 30° C., 30 minutes, read-out: DPP-IV inhibition IC50
Experimental: Protocol for In-Vitro DPP-IV Assay
DPPIV activity was determined by the cleavage rate of 7-amino-4-methyl coumarin (AMC) from synthetic substrate Glycyl-Prolyl-AMC. In brief, the assay was conducted by adding 10 ng of human recombinant Dipeptidyl peptidase IV enzyme (DPPIV, available commercially from R & D Systems) in 50 μl of the assay buffer (25 mM Tris, pH 7.4, 140 mM NaCl, 10 mM KCl, 1% BSA) to 96 well black flat bottom microtiter plates. The reaction was initiated by adding 50 μl of 100 μM substrate Gly-Pro-AMC. The incubation was carried out in the kinetic mode at 30° C. for 30 minutes. Fluorescence was measured using Fluorostar at excitation filter of 380 nm and emission filter of 460 nm). Test compounds and solvent controls were added as 1 μl additions. A standard curve of free amino methyl coumarin (AMC) was generated using 0–100 μM AMC in the assay buffer. The curve generated, which was linear was used for the interpolation of catalytic activity.
Test compounds dissolved in DMSO at 5–6 concentrations were tested in duplicate along with the solvent control and blank samples. Percent inhibition was calculated at each concentration with respect to the solvent control sample (no test compound added). IC50 values were calculated from 3 experiments using the prism software.

T1 sequence (P27487 whole entry): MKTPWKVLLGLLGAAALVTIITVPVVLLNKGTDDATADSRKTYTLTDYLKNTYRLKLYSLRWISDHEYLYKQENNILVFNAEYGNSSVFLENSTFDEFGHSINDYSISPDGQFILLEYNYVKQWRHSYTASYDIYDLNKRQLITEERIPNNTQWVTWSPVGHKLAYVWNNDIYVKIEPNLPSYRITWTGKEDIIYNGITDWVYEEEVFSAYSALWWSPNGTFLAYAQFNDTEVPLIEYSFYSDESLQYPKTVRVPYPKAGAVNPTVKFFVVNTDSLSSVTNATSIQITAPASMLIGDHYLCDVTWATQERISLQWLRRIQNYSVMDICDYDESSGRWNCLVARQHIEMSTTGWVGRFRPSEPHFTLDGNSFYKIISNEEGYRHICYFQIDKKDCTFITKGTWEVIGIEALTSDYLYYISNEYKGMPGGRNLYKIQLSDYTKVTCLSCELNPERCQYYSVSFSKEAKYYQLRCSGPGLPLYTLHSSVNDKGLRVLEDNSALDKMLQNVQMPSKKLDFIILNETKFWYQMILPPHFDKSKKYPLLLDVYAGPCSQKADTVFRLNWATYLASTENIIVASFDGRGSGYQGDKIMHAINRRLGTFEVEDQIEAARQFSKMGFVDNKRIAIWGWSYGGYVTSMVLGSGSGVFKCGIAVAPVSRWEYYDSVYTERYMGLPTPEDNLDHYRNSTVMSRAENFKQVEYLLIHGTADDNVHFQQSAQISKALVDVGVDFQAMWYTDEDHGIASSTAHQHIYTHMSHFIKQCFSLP

Compound | IC50 [nM] | inhibition at 0.3 µM (at 300 nM, n = 3, read-out: DPP-IV inhibition, percent inhibition at 300 nM) [%]
N#C[C@@H]1CCCN1C(=O)CN[C@@H]1CC[C@H](CS(=O)(=O)c2ccccc2)C1 [Example-31, (2S)-1-{2-[(3S,1R)-3-Phenylsulfonylmethylcyclopentylamino]acetytl}-pyrrolidine-2-carbonitrile] | 91.8 | –
N#C[C@@H]1CCCN1C(=O)CN[C@H]1CC[C@@H](CSc2ccccc2)C1 [Example-32, (2S)-1-{2-[(1S,3R)-3-Phenylsulfanylmethylcycopentylamino]acetyl}-pyrrolidine-2-carbonitrile] | 37 | –
N#C[C@@H]1CCCN1C(=O)CN[C@H]1CC[C@@H](CS(=O)(=O)c2ccccc2)C1 [Example-33, (2S)-1-{2-[(1S,3R)-3-Phenylsulfonylmethylcyclopentylamino]acetyl}-pyrrolidine-2-carbonitrile] | 57.3 | –
N#C[C@@H]1CCCN1C(=O)CN[C@H]1CC[C@@H](CSc2ccc(F)cc2)C1 [Example-34, (2S)-1-{2-[(1S,3R)-3-(4-Fluorophenylsulfanylmethyl)cyclopentylamino]acetyl}-pyrro-lidine-2-carbonitrile] | 26.1 | –
N#C[C@@H]1CCCN1C(=O)CN[C@H]1C=C[C@@H](CSc2ccccn2)C1 [Example-35, (2S)-1-{2-[(4S,1R)-4-(2-Pyridylsulfanylmethyl)cyclopent-2-enealino]acetyl}-pyrrolidine-2-carbonitrile] | 70.9 | –
N#C[C@@H]1CCCN1C(=O)CN[C@H]1CC[C@@H](CSc2ccccn2)C1 [Example-36, (2S)-1-{2-[(1S,3R)-3-(2-Pyridylsulfanylmethyl)cyclopentylamino]acetyl}-pyrrolidine-2-carbonitrile] | 10.6 | –
N#C[C@@H]1CCCN1C(=O)CN[C@H]1CC[C@@H](CS(=O)(=O)c2ccccn2)C1 [Example-37, (2S)-1-{2-[(1S,3R)-3-(2-Pyridylsulfonylmethyl)cyclopentylamino]acetyl}-pyrrolidine-2-carbonitrile] | 66 | –
N#C[C@@H]1CCCN1C(=O)CN[C@@H]1CC[C@H](CSc2ncccn2)C1 [Example-41, (2S)-1-{2-[(3S,1R)-3-(2-Pyrimidinylsulfanylmethyl)cyclopentylamino]acetyl}-pyrrol-idine-2-carbonitrile] | 15.8 | –
N#C[C@@H]1CCCN1C(=O)CN[C@@H]1CC[C@H](CSc2nc3ccccc3[nH]2)C1 [Example-42, (2S)-1-{2-[(3S,1R)-3-(1H-Benzo[d]imidazol-2-ylsulfanylmethyl)cyclopentylamino]-acetyl}-pyrrolidine-2-carbonitrile] | 26.8 | –
N#C[C@@H]1CCCN1C(=O)CN[C@@H]1CC[C@H](COc2ccc([N+](=O)[O-])cc2)C1 [Example-44, (2S)-1-{2-[(3S,1R)-3-(4-Nitrophenoxymethyl)cyclopentylamino]acetyl}-pyrrolidine-2-carbonitrile] | 25.8 | –
N#C[C@@H]1CCCN1C(=O)CN[C@H]1CC[C@@H](COc2ccc([N+](=O)[O-])cc2)C1 [Example-45, (2S)-1-{2-[(3R,1S)-3-(4-Nitrophenoxymethyl)cyclopentylamino]acetyl}-pyrrolidine-2-carbonitrile] | 49.9 | –
N#Cc1ccc(OC[C@@H]2CC[C@H](NCC(=O)N3CCC[C@H]3C#N)C2)cc1 [Example-46] | 11.6 | –
N#Cc1ccc(OC[C@H]2CC[C@@H](NCC(=O)N3CCC[C@H]3C#N)C2)cc1 [Example-47, (2S)-1-{2-[(3S,1R)-3-(4-Cyanophenoxymethyl)cyclopentylamino]acetyl}-pyrrolidine-2-carbonitrile] | 13.8 | –
N#Cc1ccc(OC[C@H]2CC[C@@H](NCC(=O)N3CCC[C@H]3C#N)C2)cc1 [Example-48, (2S)-1-{2-[(3S,1R)-3-(4-Cyanophenoxymethyl)cyclopentylamino]acetyl}-pyrrolidine-2-carbonitrile hydrochloride] | 13.5 | –
N#Cc1ccc(OC[C@H]2CC[C@@H](NCC(=O)N3CCC[C@H]3C#N)C2)cc1F [Example-49, (2S)-1-{2-[(3S,1R)-3-(4-Cyano-3-fluorophenoxymethyl)cyclopentylamino]acetyl}-pyrrolidine-2-carbonitrile] | 23.5 | –
N#Cc1ccc(OC[C@H]2CC[C@@H](NCC(=O)N3C[C@@H](F)C[C@H]3C#N)C2)cc1F [Example-50, (2S,4S)-1-{2-[(3S,1R)-3-(4-Cyano-3-fluorophenoxymethyl)cyclopentylamino]acetyl}-4-fluoro-pyrrolidine-2-carbonitrile] | 2.56 | –
N#Cc1ccc(OC[C@H]2CC[C@@H](NCC(=O)N3CCC[C@H]3C#N)C2)c2oc3ccccc3c12 [Example-51, (2S)-1-{2-[(3S,1R)-3-(1-Cyanodibenzo[b,d]furan-4-yloxymethyl)cyclopentylamino]-acetyl}-pyrrolidine-2-carbonitrile] | – | 25

— patent publication US7230002B2, “Dipeptidyl peptidase IV inhibitors; processes for their preparation and compositions thereof” (Glenmark Pharmaceuticals Ltd., priority 2004, dated 2007)
